Source: patent US8039014B2, “3′-alkoxyspirocyclopentyl-substituted tetramic and tetronic acids” (Bayer Cropscience AG, priority 2005, dated 2011)

System: cereal
Assay: Herbicidal post-emergence action with safener: container trials with cereal outdoors ('bird cage'), mefenpyr 1 day prior to herbicide application
Format: in vivo
Conditions: without safener
Experimental: Seeds of monocotyledonous and dicotyledonous weed and crop plants are placed into sandy loam in wood fiber pots or in plastic pots, covered with soil and cultivated in a greenhouse, during the vegetation period also outdoors outside of the greenhouse, under good growth conditions. 2 to 3 weeks after sowing, the test plants are treated at the one- to three-leaf stage. The test compounds, formulated as wettable powders (WP) or liquid (EC), are, in various dosages at a water application rate of 300 l/ha (converted), with wetting agent (0.2 to 0.3%) added, sprayed onto the plants and the surface of the soil. […]
If it is additionally to be tested as to whether safeners can improve the plant compatibility of test substances in the case of crop plants, the following options are used for applying the safener: • seeds of the crop plants are, before sowing, dressed with the safener substance (the amount of safener stated in percent, based on the weight of the seed) • before the application of the test substances, the crop plants are sprayed with the safener at a certain application rate per hectare (usually 1 day before the application of the test substances) • the safener is applied together with the test substance as a tank mix (the amount of safener is stated in g/ha or as a ratio, based on the herbicide). […]

CCc1cc(Cl)cc(OC)c1C1=C(O)C2(CCC(OC)C2)NC1=O (centres unmarked) [Example I-1-a-4]
Summer wheat after 10 d observed (%) (25 g ai/ha): 25% | Summer wheat after 10 d observed (%) (50 g ai/ha): 40%
